Measurements from patent US20230346827A1 (priority 2020, published 2023).

What was measured:
[1] = test system: plasma hepatocyte growth factor (HGF); experiment: Plasma HGF (ELISA) in ALS patients after s.c. LMW-DS 1 mg/kg weekly (Example 2); assay type: in vivo, human; settings: 1 mg/kg s.c.
Procedure: This was a single-center, open single-arm study where the safety, tolerability and efficacy of subcutaneous (s.c.) administered LMW-DS was evaluated in patients with ALS. There were 10 planned visits to the clinic: 1 screening visit divided in 2 parts (Visit 1a and Visit 1b), 5 investigational medicinal product (IMP) administration visits (Visit 2 to Visit 6) and 3 follow-up visits (Visit 7 to Visit 9). Each individual patient’s study participation was planned to be approximately 4 months, including the screening and follow-up visits.
The active pharmaceutical ingredient of the IMP was a low molecular weight dextran sulfate (LMW-DS), (ILB®, Tikomed AB, Viken, Sweden, WO 2016/076780). The drug was used as a solution for s.c. injection and consisted of 20 mg/mL LMW-DS and 9 mg/mL NaCl. Each glass vial contained 10 mL. The dose administered depended on the patient’s body weight at Visit 2, prior to the first LMW-DS administration. LMW-DS was injected s.c. on alternating sides of the abdomen, thigh or the buttock (in that order of priority). Five injections of 1 mg/kg, with 1 week dosing interval, were administered. Changes in immunoreactive HGF were measured by commercial ELISA (R&D HGF ELISA) from blood samples taken at each visit.

human primary cells = experiment: BioMAP Diversity PLUS panel (12 human primary cell-based systems)
Procedure: Four concentrations of LMW-DS (ILB®, Tikomed AB, Viken, Sweden, WO 2016/076780; 150 nM, 440 nM, 1.3 µM, 4 µM) were investigated in the BioMAP® Diversity PLUS panel by Eurofins.
Human primary cells in BioMAP systems are used at early passage (passage 4 or earlier) to minimize adaptation to cell culture conditions and preserve physiological signaling responses. All cells are from a pool of multiple donors (n = 2 - 6), commercially purchased and handled according to the recommendations of the manufacturers. Human blood derived CD14+ monocytes are differentiated into macrophages in vitro before being added to the Mphg system. Abbreviations are used as follows: Human umbilical vein endothelial cells (HUVEC), Peripheral blood mononuclear cells (PBMC), Human neonatal dermal fibroblasts (HDFn), B cell receptor (BCR), T cell receptor (TCR) and Toll-like receptor (TLR).
Cell types and stimuli used in each system are as follows: 3C system [HUVEC + (IL-1β, TNFα and IFNy)], 4H system [HUVEC + (IL-4 and histamine)], LPS system [PBMC and HUVEC + LPS (TLR4 ligand)], SAg system [PBMC and HUVEC + TCR ligands], BT system [CD19+ B cells and PBMC + (α-IgM and TCR ligands)], BF4T system [bronchial epithelial cells and HDFn + (TNFα and IL-4)], BE3C system [bronchial epithelial cells + (IL-1β, TNFα and IFNy)], CASM3C system [coronary artery smooth muscle cells + (IL-1 β, TNFα and IFNy)], HDF3CGF system [HDFn + (IL-1β, TNFα, IFNy, EGF, bFGF and PDGF-BB)], KF3CT system [keratinocytes and HDFn + (IL-1β, TNFα, IFNy and TGFβ)], MyoF system [differentiated lung myofibroblasts + (TNFα and TGFβ)] and Mphg system [HUVEC and M1 macrophages + Zymosan (TLR2 ligand)].
Systems are derived from either single cell types or co-culture systems. Adherent cell types are cultured in 96 or 384-well plates until confluence, followed by the addition of PBMC (SAg and LPS systems). The BT system consists of CD19+ B cells co-cultured with PBMC and stimulated with a BCR activator and low levels of TCR stimulation. […] Each plate contains drug controls (e.g., legacy control test agent colchicine at 1.1 µM), negative controls (e.g., non-stimulated conditions) and vehicle controls (e.g., 0.1% DMSO) appropriate for each system. Direct ELISA is used to measure biomarker levels of cell-associated and cell membrane targets. Soluble factors from supernatants are quantified using either HTRF® detection, bead-based multiplex immunoassay or capture ELISA. Overt adverse effects of test agents on cell proliferation and viability (cytotoxicity) are detected by sulforhodamine B (SRB) staining, for adherent cells, and alamarBlue® reduction for cells in suspension. For proliferation assays, individual cell types are cultured at subconfluence and measured at time points optimized for each system (48-hrs: 3C and CASM3C systems; 72-hrs: BT and HDF3CGF systems; 96-hrs: SAg system). Cytotoxicity for adherent cells is measured by SRB (24-hrs: 3C, 4H, LPS, SAg, BF4T, BE3C, CASM3C, HDF3CGF, KF3CT, and Mphg systems; 48-hrs: MyoF system), and by alamarBlue staining for cells in suspension (24-hrs: SAg system; 42-hrs: BT system) at the time points indicated.
Biomarker measurements in a test agent-treated sample are divided by the average of control samples (at least 6 vehicle controls from the same plate) to generate a ratio that is then log10 transformed. Significance prediction envelopes are calculated using historical vehicle control data at a 95% confidence interval.
Biomarker activities are annotated when 2 or more consecutive concentrations change in the same direction relative to vehicle controls, are outside of the significance envelope and have at least one concentration with an effect size > 20% (|log10 ratio| > 0.1). Biomarker key activities are described as modulated if these activities increase in some systems, but decrease in others. […]

SARS-CoV-2 = settings: incubation of SARS-CoV-2 with exogenous LMW-DS; cited from earlier work

Substance: sodium salt of dextran sulfate [LMW-DS]
- time of maximum peak of plasma HGF after LMW-DS administration [1]: about 2 hr
- annotated readouts (human primary cells; 150 nM, 440 nM, 1.3 µM, 4 µM): 25
- cytotoxicity for human primary cells (human primary cells; at the concentrations tested (150 nM - 4 µM)): not cytotoxic
- thrombomodulin (TM) (human primary cells; hemostasis-related activity): increased
- CD69 (human primary cells; immunomodulatory activity): increased
- M-CSF (human primary cells; immunomodulatory activity): decreased
- secreted immunoglobulin G (sIgG) (human primary cells; immunomodulatory activity): decreased
- soluble IL-17A (sIL-17A) (human primary cells; immunomodulatory activity): increased
- Eotaxin 3 (Eot3) (human primary cells; inflammation-related activity): increased
- I-TAC (human primary cells; inflammation-related activity): decreased
- IL-8 (human primary cells; inflammation-related activity): increased
- IP-10 (human primary cells; inflammation-related activity): decreased
- MCP-1 (human primary cells; inflammation-related activity): decreased
- MIG (human primary cells; inflammation-related activity): decreased
- VCAM-1 (human primary cells; inflammation-related activity): decreased
- sTNFα (human primary cells; inflammation-related activity): decreased
- EGFR (human primary cells; tissue remodeling activity): increased
- MMP-1 (human primary cells; tissue remodeling activity): increased
- PAI-1 (human primary cells; tissue remodeling activity): increased
- uPAR (human primary cells; tissue remodeling activity): increased
- antiproliferative effect on human primary endothelial cells (human primary cells; top concentration only (4 µM)): modestly and selectively antiproliferative
- SARS-CoV-2 attachment to human epithelial cell lines (SARS-CoV-2): reduces attachment
